Measurements from PubChem BioAssay (NCI).
Several values for one entry are separate records, joined by “and”; a condition that tells them apart may be missing. Equal entries are not always repeated.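 Each compound was tested at five concentrations against cells in 96-well plates for 48 hours. At the GI50, growth is halved. TGI: concentration producing complete growth inhibition.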

What was measured:
Experiment in all cases: NCI-60 cell line screen, 48 h
[1] = test system: NCI-H23 lung
[2] = test system: CAKI-1 renal
[3] = test system: SK-OV-3 ovarian
[4] = test system: SR leukemia
[5] = test system: HCC-2998 colon
[6] = test system: A549 NSCLC
[7] = test system: UACC-62 melanoma
[8] = test system: MDA-MB-231 breast
[9] = test system: TK-10 renal
[10] = test system: HOP-92 NSCLC

SMILES	GI50 [1]	TGI [1]	GI50 [2] [µM]	TGI [2] [µM]	GI50 [3]	TGI [3]	GI50 [4]	TGI [4] [µM]	GI50 [5]	TGI [5] [µM]	GI50 [6]	TGI [6] [µM]	GI50 [7]	TGI [7]	GI50 [8]	TGI [8]	GI50 [9]	TGI [9] [µM]	GI50 [10]	TGI [10]
Cc1nn(-c2ccccc2)c2c1C1C(=C(c3ccc(Cl)cc3)N2)C(=O)Nc2ccccc21 (configuration not stated)	4.46 µM	47.9 µM	3.04	> 100	6.43 µM	> 100 µM	2.15 µM	5.58	3.43 µM	10.6	3.12 µM	> 100	3.56 µM	15 µM	2.41 µM	8.74 µM	–	–	–	–
C[C@@H](NC(=O)Cc1cc(F)cc(F)c1)C(=O)N[C@@]1(C)N=C(c2ccccc2)c2ccccc2N(C)C1=O	43.4 µM	> 100 µM	11.7	> 56.8	> 100 µM	> 100 µM	2.5 µM	> 22.7	–	–	66.1 µM	> 100	32.4 µM	> 89 µM	15.9 µM	> 96.6 µM	31.2 µM	> 88.8	19.8 µM	> 67.7 µM
N#CC1c2ccccc2-c2ccccc2N1C(=O)c1ccccc1 (configuration not stated)	3.09 µM	> 100 µM	–	–	4.36 µM	> 45.2 µM	2.92 µM	–	2.72 µM	22.2	2.97 µM	> 38.8	1.9 µM	> 38.5 µM	2.61 µM	9.06 µM	1.23 µM	28.2	2.42 µM	19.9 µM
Cn1c(=O)n(-c2ccc(C(C)(C)C#N)cc2)c2c3cc(-c4cnc5ccccc5c4)ccc3ncc21	0.0169 µM and 0.00838 µM and < 0.0127 µM	15.9 µM and > 10 µM and > 100 µM	–	0.0401	< 0.01 µM and 0.00494 µM	0.0442 µM and 0.0549 µM and 0.0293 µM	0.0386 µM and 0.00551 µM and < 0.0137 µM	> 100	< 0.01 µM and 0.0061 µM	> 100	0.0102 µM and 0.00594 µM and < 0.01 µM	–	0.0112 µM and 0.00494 µM and < 0.01 µM	0.0809 µM and 0.0513 µM and 0.0445 µM	0.0197 µM and 0.00686 µM and < 0.011 µM	48.5 µM and > 10 µM and > 44.3 µM	0.0102 µM and 0.00652 µM and 0.0126 µM	–	< 0.01 µM and 0.00431 µM	0.0622 µM and 0.122 µM and 0.0651 µM
O=C1c2cccnc2C(=O)c2c1c(C(=O)OCCCN1CCOCC1)c1ccccn21	< 0.01 µM	–	< 0.01	0.0509	–	–	< 0.01 µM	> 100	< 0.01 µM	3.15	< 0.01 µM	0.072	< 0.01 µM	0.0244 µM	1.32 µM	15.8 µM	0.0292 µM	5.57	0.151 µM	0.929 µM
CCOC(=O)c1[nH]c2c(c1C)-c1[nH]c(=O)c(S(=O)(=O)c3ccccc3)cc1SC2	41.1 µM	> 100 µM	54.1	> 100	56.6 µM	> 100 µM	30.3 µM	> 100	> 100 µM	> 100	41.3 µM	> 100	46.7 µM	> 100 µM	34.9 µM	> 100 µM	42.6 µM	> 100	0.504 µM	61.1 µM
Cc1nnc([S-])s1.[Au+].c1ccc([PH+](c2ccccc2)c2ccccc2)cc1	–	–	1.64	3	–	–	1.67 µM	> 100	1.83 µM	3.36	–	–	1.28 µM	2.56 µM	1.65 µM	3.05 µM	1.83 µM	3.32	1.82 µM	3.24 µM
CCN(CC)CCC(=O)Nc1ccc(Cn2nnc3c2C(=O)c2nnn(Cc4ccc(NC(=O)CCN(CC)CC)cc4)c2C3=O)cc1	0.326 µM	1.22 µM	> 71.1	> 100	2.08 µM	5.88 µM	0.507 µM	5	0.316 µM	0.987	1.51 µM	3.4	1.08 µM	2.67 µM	0.253 µM	10.2 µM	13.2 µM	30.8	0.325 µM	0.913 µM
COc1ccc2c(c1O)[C@@]13C=C(O)C(=O)C=C1[C@@H](C2)N(C)CC3	–	> 100 µM	–	> 100	–	> 100 µM	–	> 100	–	> 100	–	> 100	–	> 100 µM	–	> 100 µM	–	> 100	–	> 100 µM
c1ccc2c(c1)nc(NCCN1CCNCC1)c1c3ccccc3[nH]c21	0.666 µM	2.03 µM	0.454	2.81	2.16 µM	8.53 µM	0.226 µM	1.33	0.425 µM	1.68	0.206 µM	1.21	1.76 µM	3.69 µM	0.676 µM	2.28 µM	1.34 µM	6.91	0.43 µM	2.62 µM
CC1Cc2c(N(C)C)ncnc2N(C)c2ccc(Cl)cc21 (configuration not stated)	5.74 µM	> 100 µM	3.12	> 100	4.93 µM	72.1 µM	0.463 µM	20.3	6.9 µM	37.3	10.7 µM	> 100	–	–	5.84 µM	55.4 µM	14.8 µM	> 100	11 µM	69.6 µM
Nc1ncnc2occ(-c3ccc(NC(=O)Nc4cc(C(F)(F)F)cc(C(F)(F)F)c4)cc3)c12	3.12 µM	6.86 µM	2.6	10	3.37 µM	6.67 µM	2.03 µM	15.2	4.63 µM	8.27	3 µM	7.18	3.26 µM	6.68 µM	4.3 µM	9.09 µM	1.84 µM	5.96	0.977 µM	4.42 µM
CN1C(=O)c2cc(Cl)nc3c(NC(=O)c4cccc(Cl)c4)c(Cl)c(NC(=O)c4cccc(Cl)c4)c1c23	2.14 µM	5.92 µM	–	–	4.98 µM	17.4 µM	0.58 µM	2.95	1.76 µM	3.41	4.14 µM	14.8	1.92 µM	3.76 µM	2.05 µM	4.24 µM	2.28 µM	5.84	1.71 µM	3.41 µM
COC(=O)c1cc(Nc2ccc(O)c3c2C(=O)c2c([N+](=O)[O-])ccc(O)c2C3=O)cc(C(=O)OC)c1	–	–	77.1	> 100	> 100 µM	> 100 µM	3.19 µM	42.6	4.39 µM	> 100	1.74 µM	4.05	4.63 µM	> 100 µM	13.8 µM	> 100 µM	–	–	22 µM	> 100 µM
O=c1oc(-c2ccc(O)c(O)c2)cc2cc(O)cc(O)c12	35.2 µM	> 100 µM	33.6	> 100	> 100 µM	> 100 µM	8.26 µM	> 100	36.6 µM	57.7	34.1 µM	> 100	33.8 µM	> 100 µM	44.7 µM	> 100 µM	30.5 µM	> 100	25.5 µM	> 100 µM
CC1(C)N=C(N)N=C(N)N1c1ccc(OCC(=O)Nc2cccc(S(=O)(=O)F)c2)c(Cl)c1	–	> 45.4 µM	–	> 100	–	> 100 µM	–	> 100	–	> 100	–	> 100	–	–	–	> 100 µM	–	> 44.4	–	> 100 µM
CCCC/C(=N\N=C(N)N)c1ccc(F)cc1	3.34 µM	17.1 µM	3.44	15.1	2.61 µM	11 µM	0.481 µM	11.9	2.77 µM	11	4.66 µM	16.7	3.14 µM	14.8 µM	5.42 µM	18.9 µM	7.83 µM	20.8	2.13 µM	8.93 µM
O=C(/C=C/N1CCN(c2cccc(C(F)(F)F)c2)CC1)c1ccc(Cl)cc1Cl	23.2 µM	75.3 µM	22.7	41.3	36.2 µM	98.2 µM	30.1 µM	56	–	–	39.8 µM	> 100	21.4 µM	41.8 µM	26.8 µM	59.8 µM	30.1 µM	87.3	20.6 µM	50.7 µM
C/C(=C(/c1ccc(O)cc1)c1ccc(OCCN2CCCC2)cc1)c1ccccc1	4.31 µM	18.2 µM	3.02	13.9	3.25 µM	13 µM	1.93 µM	5.75	2.34 µM	6.18	3.53 µM	11	2.26 µM	4.72 µM	3.51 µM	8.4 µM	4.61 µM	16.4	2.24 µM	7.34 µM
O=C(N[C@@H]1CCCc2ccccc21)[C@H](CCC(=O)N1CCN(C2CCCCC2)CC1)N1C(=O)[C@@H](N2C(=O)OC[C@@H]2c2ccccc2)[C@H]1/C=C/c1ccccc1	3.7 µM	19.7 µM	1.92	6.8	3.02 µM	14 µM	2.68 µM	> 100	2.27 µM	5.37	2.6 µM	14.8	1.86 µM	3.93 µM	1.89 µM	4.12 µM	2.02 µM	6.01	1.58 µM	5.18 µM
CC(CC(=O)O)(CC(=O)O)C(=O)O	–	> 100 µM	–	> 100	–	> 100 µM	–	> 100	–	> 100	–	> 100	–	> 100 µM	–	> 100 µM	–	> 100	–	> 100 µM
CCOP(=O)(OCC)/C(C#N)=C\c1cccc2ccccc12	–	> 100 µM	–	> 100	–	> 100 µM	–	> 75.1	–	> 100	–	> 100	–	> 100 µM	–	> 100 µM	–	> 100	–	93.6 µM
CCCCCCCCCCCCCCCC[N+]1(CC)CCCC1	–	–	1.75	11.3	1.02 µM	3.05 µM	0.655 µM	4.42	–	–	1.07 µM	2.59	–	–	0.589 µM	2.19 µM	0.266 µM	1.21	0.227 µM	1.33 µM
Cc1ccc(NCSc2ccc(Cl)cc2)cc1	63.4 µM	> 100 µM	5.51	> 100	67 µM	> 100 µM	> 100 µM	> 100	> 100 µM	> 100	9.8 µM	> 100	87.2 µM	> 100 µM	15.1 µM	> 100 µM	51.8 µM	> 100	–	–
Oc1cccc(-c2nc3ccccc3s2)c1	–	69.6 µM	–	66	–	> 100 µM	–	> 100	–	–	–	> 100	–	> 100 µM	–	56.2 µM	–	–	–	> 100 µM
COc1ccc(C2=CC(c3cc(OC)c(OC)c(OC)c3)n3ncnc3N2)cc1 (configuration not stated)	0.0875 µM	42 µM	–	–	0.0513 µM	27 µM	0.0439 µM	> 100	0.24 µM	> 100	0.0858 µM	30.3	0.0689 µM	> 100 µM	0.193 µM	83.5 µM	13 µM	31.7	11.3 µM	37.3 µM
CC[C@]12C=CCN3CC[C@]4(C(=C(C(=O)OC)C1)Nc1cc(O)ccc14)[C@@H]32	16.8 µM	37.7 µM	14.1	37.1	–	–	12.3 µM	> 100	14.9 µM	29.6	23.3 µM	70.8	7.18 µM	22.3 µM	13.8 µM	41.6 µM	30.8 µM	99.7	11.6 µM	26.1 µM
COC(=O)[C@H](Cc1ccccc1)NC(=O)c1csc([C@@H](C[C@H](C(C)C)N(C)C(=O)[C@@H](NC(=O)[C@H]2CCCCN2C)C2CC2)OC(C)=O)n1	0.146 µM	> 25 µM	–	–	0.121 µM	> 25 µM	0.00563 µM	> 25	0.162 µM	> 25	0.0991 µM	> 25	0.247 µM	> 25 µM	0.0763 µM	> 12.5 µM	0.473 µM	> 25	0.137 µM	4.18 µM
